From patent US8173120B2, “Method of preventing reduced feed intake in animals and treatment of disease conditions” (Precision Nutrition Pty Ltd, priority 2005, dated 2012)
Read-outs that look alike come from different tables or passages of the source.

What was measured:
[1] = feed intake of horses on sudden or gradual introduction of virginiamycin (Founderguard); format: in vivo
Method: The aim of the experiment was to determine if there is a depression in feed intake when horses are first given Founderguard at the recommended dose rate of 0.5 mg virginiamycin per kg body weight per day, and whether a gradual or sudden introduction of Founderguard has different effects on feed intake during the introductory period.
Five horses of mixed ages and sexes were used in the experiment. All horses were treated against intestinal parasites prior to the Control period.
Open air feeding stalls approximately 2.5 m square were prepared with ground-level hay feeders, car tyre bucket-holders for feeding grain and a water trough shared between two stalls. Horses entered the stalls around 7.00 AM each day and were let out for exercise around 5.00 PM. […]
All the oats offered were consumed. Intake of all feed was measured on an ‘as-fed’ basis. […] While not measured objectively the quality of hay used in Period 2 was considered to be of higher quality than that used in Period 1. The effect of treatment on feed intake for each horse was calculated each day as a percentage of the mean intake for that animal during the five days of ‘Control’ intake measurement. […]
Feed intake was measured for at least 5 days without Founderguard (control intake) before commencing the five day treatment period. […]

[2] = feed intake on introduction of virginiamycin into the diet (general statements); format: in vivo, sheep, cattle and horses
[3] = horses, very high concentrations (500 mg/kg complete feed); cited from earlier work
[4] = system: lactic acid producing bacteria; test: in vitro function assay: lactic acid and pH after incubation of faecal/colonic samples from horses fed virginiamycin pellets; format: in vivo
Text: Twelve horses were housed individually and fed 2.5 kg/d of a commercial horse concentrate each morning. Approximately 6 kg of medium quality lucerne hay was fed after animals had consumed the concentrate.
The experiment was run in three periods with 4 animals in the stables during each period. Each period lasted 12 days: five days to allow adaptation to the stables and the dietary regime, and then 7 days when medicated pellets containing different concentrations of virginiamycin were fed. Faecal samples were taken on the day before feeding medicated feed and then on days 2, 4 and 6 of feeding the medicated pellets.
The effectiveness of each dose rate and time on treatment was determined using an in vitro function assay to determine the amount of lactic acid produced during in vitro incubation of faecal material or samples taken from the distal colon. The fermentation of faecal material was carried out as follows. Fresh faecal material was obtained prior to the morning feed. Where warm material was available in the stable this was used, otherwise a rectal sample was obtained. A sub-sample of 150 g was mixed with an equal volume of distilled water and then strained through nylon gauze. Aliquots of supernatant were dispensed into 3 replicate tubes (4 ml/tube) and 1 ml of glucose solution (50 mg glucose/ml) was added before pricking the lid of the plastic vial with a 25 g needle and incubating for 20 to 24 hours at 37°. Following incubation the measurements of pH were made before centrifugation of a sub-sample prior to L-lactic acid analysis.
The results of the in vitro function assay are summarised in Tables 2 and 3 and represented graphically in FIG. 3. It is relevant to note that the level of glucose used in the in vitro incubations is effectively higher than any amount of carbohydrate which could be used in vivo. In the in vitro model, no volatile fatty acids are removed from the incubation flask through “absorption”.
The result of this is that the pH drops in vitro by more than it would in vivo and that a lactate-based fermentation develops more readily. It is therefore probably unrealistic to expect that lactate production can be completely controlled in this in vitro incubation model. Initially it was considered that the “baseline” in the in vitro model could be set around 10 mmol/L for an effective dose rate of virginiamycin. However, given the variable response around the 0.5 mg/kg dose rate in terms of lactic acid accumulation in the in vitro model it may be advisable to set a lower threshold for mean lactic acid concentration in determining the effective dose rate.

[5] = horse 1, 640 mg/d, 1.422 mg/kg, 2 days on medicated feed
[6] = horse 1, 640 mg/d, 1.422 mg/kg, 6 days on medicated feed
[7] = horse 2, 160 mg/d, 0.343 mg/kg, 2 days on medicated feed
[8] = horse 2, 160 mg/d, 0.343 mg/kg, 4 days on medicated feed
[9] = horse 3, 1280 mg/d, 2.639 mg/kg, 2 days on medicated feed
[10] = horse 3, 1280 mg/d, 2.639 mg/kg, 4 days on medicated feed
[11] = horse 3, 1280 mg/d, 2.639 mg/kg, 6 days on medicated feed
[12] = horse 4, 20 mg/d, 0.042 mg/kg, 2 days on medicated feed
[13] = horse 4, 20 mg/d, 0.042 mg/kg, 4 days on medicated feed
[14] = horse 4, 20 mg/d, 0.042 mg/kg, 6 days on medicated feed
[15] = horse 5, 160 mg/d, 0.359 mg/kg, 2 days on medicated feed
[16] = horse 5, 160 mg/d, 0.359 mg/kg, 4 days on medicated feed
[17] = horse 5, 160 mg/d, 0.359 mg/kg, 6 days on medicated feed
[18] = horse 6, 40 mg/d, 0.091 mg/kg, 2 days on medicated feed
[19] = horse 6, 40 mg/d, 0.091 mg/kg, 4 days on medicated feed
[20] = horse 7, 640 mg/d, 1.475 mg/kg, 2 days on medicated feed
[21] = horse 7, 640 mg/d, 1.475 mg/kg, 4 days on medicated feed
[22] = horse 7, 640 mg/d, 1.475 mg/kg, 6 days on medicated feed
[23] = horse 8, 80 mg/d, 0.154 mg/kg, 2 days on medicated feed
[24] = horse 8, 80 mg/d, 0.154 mg/kg, 6 days on medicated feed
[25] = horse 9, 80 mg/d, 0.180 mg/kg, 2 days on medicated feed
[26] = horse 9, 80 mg/d, 0.180 mg/kg, 4 days on medicated feed
[27] = horse 10, 320 mg/d, 0.702 mg/kg, 2 days on medicated feed
[28] = horse 10, 320 mg/d, 0.702 mg/kg, 4 days on medicated feed
[29] = horse 11, 160 mg/d, 0.432 mg/kg, 2 days on medicated feed
[30] = horse 11, 160 mg/d, 0.432 mg/kg, 6 days on medicated feed
[31] = horse 12, 320 mg/d, 0.693 mg/kg, 2 days on medicated feed
[32] = horse 12, 320 mg/d, 0.693 mg/kg, 6 days on medicated feed

Substance: virginiamycin
- effect on feed intake ([1]; gradual introduction over 4 days (25, 50, 75, 100% of complete dose)): does not cause a depression in feed intake
- feed intake compared to pretreatment levels (day 0) and to gradual introduction ([1]; sudden introduction of the full dose (0.5 mg/kg bodyweight per day)): significant decrease in feed intake
- feed intake compared to pre-medication levels ([2]; gradually increasing doses): no detectable decrease in feed intake
- feed intake, average, of the pretreatment level ([2]; sudden introduction of the full dose rate): around 80%
- reduction of feed intake ([2]; sudden introduction to sheep, cattle or horses at 0.5 mg per kg body weight and above, or 20 g/tonne and above): ≥ 20%
- effect on feed intake [3]: reduce feed intake
- control of lactic acid production ([4]; 0.4 to 0.7 mg per kg bodyweight per day, after three to four days): partial and variable levels of controlling lactic acid production
- control of lactic acid producing bacteria in faecal/colonic digesta ([4]; 1.4 and 2.6 mg/kg body weight, 48 hours after first treatment): good control of lactic acid producing bacteria
- capacity for lactic acid production ([4]; 1.4 and 2.6 mg/kg body weight, days 4 and 6 as well as day 2): remained low
- capacity for lactic acid production ([4]; average of 0.4 and 0.7 mg/kg bodyweight per day, days 2, 4 and 6, response more variable and less complete than higher dose rates): reduction in capacity for lactic acid production
- control of lactic acid production ([4]; dose rates over 1.4 mg per kg body weight, after two days of treatment): almost complete control
- L-lactate concentration following incubation of faecal samples, Mean [4, 5]: 0 mmol/L
- pH measured following incubation of faecal samples, Mean [4, 5]: 5.11
- L-lactate concentration following incubation of faecal samples, Mean [4, 6]: 4 mmol/L
- pH measured following incubation of faecal samples, Mean [4, 6]: 4.94
- L-lactate concentration following incubation of faecal samples, Mean [4, 7]: 17 mmol/L
- pH measured following incubation of faecal samples, Mean [4, 7]: 4.61
- L-lactate concentration following incubation of faecal samples, Mean [4, 8]: 21 mmol/L
- pH measured following incubation of faecal samples, Mean [4, 8]: 4.76
- L-lactate concentration following incubation of faecal samples, Mean ([4]; horse 2, 160 mg/d, 0.343 mg/kg, 6 days on medicated feed): 12 mmol/L
- L-lactate concentration following incubation of faecal samples, Mean [4, 9]: 0 mmol/L
- pH measured following incubation of faecal samples, Mean [4, 9]: 4.43
- L-lactate concentration following incubation of faecal samples, Mean [4, 10]: 0 mmol/L
- pH measured following incubation of faecal samples, Mean [4, 10]: 4.71
- L-lactate concentration following incubation of faecal samples, Mean [4, 11]: 1 mmol/L
- pH measured following incubation of faecal samples, Mean [4, 11]: 4.59
- L-lactate concentration following incubation of faecal samples, Mean [4, 12]: 47 mmol/L
- pH measured following incubation of faecal samples, Mean [4, 12]: 3.63
- L-lactate concentration following incubation of faecal samples, Mean [4, 13]: 47 mmol/L
- pH measured following incubation of faecal samples, Mean [4, 13]: 4.02
- L-lactate concentration following incubation of faecal samples, Mean [4, 14]: 31 mmol/L
- pH measured following incubation of faecal samples, Mean [4, 14]: 4.28
- L-lactate concentration following incubation of faecal samples, Mean [4, 15]: 0 mmol/L
- pH measured following incubation of faecal samples, Mean [4, 15]: 4.48
- L-lactate concentration following incubation of faecal samples, Mean [4, 16]: 0 mmol/L
- pH measured following incubation of faecal samples, Mean [4, 16]: 4.73
- L-lactate concentration following incubation of faecal samples, Mean [4, 17]: 0 mmol/L
- pH measured following incubation of faecal samples, Mean [4, 17]: 5.09
- L-lactate concentration following incubation of faecal samples, Mean [4, 18]: 23 mmol/L
- pH measured following incubation of faecal samples, Mean [4, 18]: 4.11
- L-lactate concentration following incubation of faecal samples, Mean [4, 19]: 25 mmol/L
- pH measured following incubation of faecal samples, Mean [4, 19]: 4.11
- L-lactate concentration following incubation of faecal samples, Mean ([4]; horse 6, 40 mg/d, 0.091 mg/kg, 6 days on medicated feed): 24 mmol/L
- L-lactate concentration following incubation of faecal samples, Mean [4, 20]: 1 mmol/L
- pH measured following incubation of faecal samples, Mean [4, 20]: 4.85
- L-lactate concentration following incubation of faecal samples, Mean [4, 21]: 1 mmol/L
- pH measured following incubation of faecal samples, Mean [4, 21]: 4.64
- L-lactate concentration following incubation of faecal samples, Mean [4, 22]: 1 mmol/L
- pH measured following incubation of faecal samples, Mean [4, 22]: 4.67
- L-lactate concentration following incubation of faecal samples, Mean [4, 23]: 5 mmol/L
- pH measured following incubation of faecal samples, Mean [4, 23]: 4.41
- L-lactate concentration following incubation of faecal samples, Mean [4, 24]: 44 mmol/L
- pH measured following incubation of faecal samples, Mean [4, 24]: 4.36
- L-lactate concentration following incubation of faecal samples, Mean [4, 25]: 4 mmol/L
- pH measured following incubation of faecal samples, Mean [4, 25]: 4.83
- L-lactate concentration following incubation of faecal samples, Mean [4, 26]: 37 mmol/L
- pH measured following incubation of faecal samples, Mean [4, 26]: 4.25
- L-lactate concentration following incubation of faecal samples, Mean ([4]; horse 9, 80 mg/d, 0.180 mg/kg, 6 days on medicated feed): 29 mmol/L
- L-lactate concentration following incubation of faecal samples, Mean [4, 27]: 1 mmol/L
- pH measured following incubation of faecal samples, Mean [4, 27]: 4.67
- L-lactate concentration following incubation of faecal samples, Mean [4, 28]: 1 mmol/L
- pH measured following incubation of faecal samples, Mean [4, 28]: 5.06
- L-lactate concentration following incubation of faecal samples, Mean ([4]; horse 10, 320 mg/d, 0.702 mg/kg, 6 days on medicated feed): 15 mmol/L
- L-lactate concentration following incubation of faecal samples, Mean [4, 29]: 4 mmol/L
- pH measured following incubation of faecal samples, Mean [4, 29]: 4.54
- L-lactate concentration following incubation of faecal samples, Mean [4, 30]: 19 mmol/L
- pH measured following incubation of faecal samples, Mean [4, 30]: 4.12
- L-lactate concentration following incubation of faecal samples, Mean [4, 31]: 36 mmol/L
- pH measured following incubation of faecal samples, Mean [4, 31]: 3.85
- L-lactate concentration following incubation of faecal samples, Mean [4, 32]: 3 mmol/L
- pH measured following incubation of faecal samples, Mean [4, 32]: 4.93
- prevention of over production of lactic acid ([4]; horses, low dose rates such as 0.1 mg per kg bodyweight per day): may not be effective in preventing over production of lactic acid
